Assay results published in US20260007758A1, “SO[…]-2 RECEPTOR (SST2R) NON-PEPTIDE DRUG CONJUGATES AND USES THEREOF” (Crinetics Pharmaceuticals, Inc., priority 2024, published 2026).

Tests used:
Type in all cases: cell-based
[1] = biological target: T1, human somatostatin receptor subtype 2 (Homo sapiens, UniProt P30874); experiment: Functional assay for SSTR2 agonists (HTRF cAMP); conditions: CHO-K1 cells stably expressing human SST2; NKH477-stimulated cAMP; 20 min at 37 C; read-out: hSST2 cAMP Avg EC50
T1 construct: expressed in transfected cells
Method in brief: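 Agonist activity read as fall in intracellular cAMP: HTRF 665/620 nm ratio regressed to a cAMP standard curve, EC50 fitted. Stable human SSTR2 CHO-K1 cells exposed 20 min at 37 °C to compound, final concentrations typically 0-10,000 nM.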

SST2 = biological target: T2, SST2 (Homo sapiens, UniProt P30874); experiment: PathHunter CHO-K1 SST2 Internalization Assay; conditions: PathHunter CHO-K1 SST2 cells; 90 min at 37 C; luminescence; read-out: Internalization EC50
T2 construct: host or cells: PathHunter CHO-K1 SST2 cells
Method in brief: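 Four-parameter nonlinear fits of background-corrected luminescence (duplicate means) gave IC50s. NDCs were serially diluted 1:3 over 11 points from a 10 uM final top concentration and incubated 90 min at 37 C with human SST2 CHO-K1 cells plated 48 h earlier at 2500/well. Beta-Glo read-out developed 60 min at RT.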

[2] = test system: NCI-H524 human small cell lung cancer cells; experiment: H524 assay: inhibition of cell proliferation (CellTiter Glo); conditions: 2 h treatment, washout, additional 70 h incubation
Method in brief: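 Proliferation was measured by CellTiter Glo 70 h after a washout that followed a 2 h pulse of NDC. Doses were an 11-point, two-fold dilution series from 1 uM. IC50 was fitted with a four-parameter model to luminescence-based % inhibition relative to control cells.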

T1 sequence (P30874 whole entry): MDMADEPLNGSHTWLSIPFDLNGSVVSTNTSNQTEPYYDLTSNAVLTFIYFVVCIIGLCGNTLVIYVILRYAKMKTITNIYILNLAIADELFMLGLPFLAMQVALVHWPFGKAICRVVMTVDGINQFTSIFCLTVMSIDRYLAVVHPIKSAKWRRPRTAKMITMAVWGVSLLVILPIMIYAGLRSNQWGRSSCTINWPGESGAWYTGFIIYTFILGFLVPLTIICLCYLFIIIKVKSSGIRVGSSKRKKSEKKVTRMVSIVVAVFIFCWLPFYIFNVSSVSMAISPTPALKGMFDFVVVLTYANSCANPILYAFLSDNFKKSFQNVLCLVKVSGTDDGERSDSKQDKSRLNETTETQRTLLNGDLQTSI
T2 sequence (P30874 whole entry): as above

SMILES: CC[C@H](C)[C@@H]([C@@H](CC(=O)N1CCC[C@H]1[C@H](OC)[C@@H](C)C(=O)N[C@H](C)[C@@H](O)c1ccccc1)OC)N(C)C(=O)[C@@H](NC(=O)[C@H](C(C)C)N(C)C(=O)OCc1ccc(NC(=O)[C@H](CCCNC(N)=O)NC(=O)[C@@H](NC(=O)[C@H](CCC(=O)O)NC(=O)CCOCCC(=O)NCCNc2ncc(-c3cc(C)cc(F)c3)c(N3CCC(N)CC3)c2-c2nc3ccc(Cl)cc3[nH]2)C(C)C)c(OCCN)c1)C(C)C [Compound 1]
- EC50 [1]: 0.25 nM
- EC50 (SST2): 18 nM
- EC50 [2]: 15 nM

SMILES: CC[C@H](C)[C@@H]([C@@H](CC(=O)N1CCC[C@H]1[C@H](OC)[C@@H](C)C(=O)N[C@H](C)[C@@H](O)c1ccccc1)OC)N(C)C(=O)[C@@H](NC(=O)[C@H](C(C)C)N(C)C(=O)OCc1ccc(NC(=O)[C@H](CCCNC(N)=O)NC(=O)[C@@H](NC(=O)c2ccc(NC(=O)CCOCCC(=O)NCCNc3ncc(-c4cc(C)cc(F)c4)c(N4CCC(N)CC4)c3-c3nc4ccc(Cl)cc4[nH]3)cc2O[C@@H]2OC(C(=O)O)[C@@H](O)[C@H](O)[C@H]2O)C(C)C)cc1)C(C)C (stereo partly drawn) [Compound 182]
- EC50 [1]: 0.093 nM
- EC50 (SST2): 11 nM
- EC50 [2]: 2300 nM

SMILES: CC[C@H](C)[C@@H]([C@@H](CC(=O)N1CCC[C@H]1[C@H](OC)[C@@H](C)C(=O)N[C@H](C)[C@@H](O)c1ccccc1)OC)N(C)C(=O)[C@@H](NC(=O)[C@H](C(C)C)N(C)C(=O)OCc1ccc(NC(=O)[C@H](CCCNC(N)=O)NC(=O)[C@@H](NC(=O)c2cc(NCCOCCC(=O)NCCNc3ncc(-c4cc(C)cc(F)c4)c(N4CCC(N)CC4)c3-c3nc4ccc(Cl)cc4[nH]3)cc(C(=O)NCCS(=O)(=O)O)c2)C(C)C)cc1)C(C)C [Compound 187]
- EC50 [1]: 0.5 nM
- EC50 (SST2): 3.7 nM
- EC50 [2]: 1800 nM

SMILES: CC[C@H](C)[C@@H]([C@@H](CC(=O)N1CCC[C@H]1[C@H](OC)[C@@H](C)C(=O)N[C@H](C)[C@@H](O)c1ccccc1)OC)N(C)C(=O)[C@@H](NC(=O)[C@H](C(C)C)N(C)C(=O)OCc1ccc(NC(=O)[C@H](CCCNC(N)=O)NC(=O)[C@@H](NC(=O)[C@H](Cc2c[nH]cn2)NC(=O)CCOCCC(=O)NCCNc2ncc(-c3cc(C)cc(F)c3)c(N3CCC(N)CC3)c2-c2nc3ccc(Cl)cc3[nH]2)C(C)C)c(O[C@@H]2C[C@H](C(=O)O)[C@@H](O)[C@H](O)[C@H]2O)c1)C(C)C [Compound 243]
- EC50 [1]: 0.082 nM
- EC50 (SST2): 3.2 nM
- EC50 [2]: 17 nM

SMILES: CC[C@H](C)[C@@H]([C@@H](CC(=O)N1CCC[C@H]1[C@H](OC)[C@@H](C)C(=O)N[C@H](C)[C@@H](O)c1ccccc1)OC)N(C)C(=O)[C@@H](NC(=O)[C@H](C(C)C)N(C)C(=O)OCc1ccc(NC(=O)[C@H](CCCNC(N)=O)NC(=O)[C@@H](NC(=O)CCOCCC(=O)NCCCNc2ncc(-c3cc(C)cc(F)c3)c(N3CCC(N)CC3)c2-c2nc3ccc(Cl)cc3[nH]2)C(C)C)c(O[C@@H]2O[C@H](C(=O)O)[C@@H](O)[C@H](O)[C@H]2O)c1)C(C)C [Compound 195]
- EC50 [1]: 0.35 nM
- EC50 (SST2): 4.1 nM
- EC50 [2]: 8.5 nM

SMILES: CC[C@H](C)[C@@H]([C@@H](CC(=O)N1CCC[C@H]1[C@H](OC)[C@@H](C)C(=O)N[C@H](C)[C@@H](O)c1ccccc1)OC)N(C)C(=O)[C@@H](NC(=O)[C@H](C(C)C)N(C)C(=O)OCc1ccc(NC(=O)[C@H](CCCNC(N)=O)NC(=O)[C@@H](NC(=O)c2cc(NCCOCCC(=O)NCCNc3ncc(-c4cc(C)cc(F)c4)c(N4CCC(N)CC4)c3-c3nc4ccc(F)cc4[nH]3)cc(C(=O)NCC(=O)O)c2)C(C)C)cc1)C(C)C [Compound 165]
- EC50 [1]: 0.5 nM
- EC50 (SST2): 10 nM
- EC50 [2]: 90 nM

SMILES: CC[C@H](C)[C@@H]([C@@H](CC(=O)N1CCC[C@H]1[C@H](OC)[C@@H](C)C(=O)N[C@H](C)[C@@H](O)c1ccccc1)OC)N(C)C(=O)[C@@H](NC(=O)[C@H](C(C)C)N(C)C(=O)OCc1ccc(NC(=O)[C@H](CCCNC(N)=O)NC(=O)[C@@H](NC(=O)c2cc(NCCOCCOCCOCCC(=O)NCCNc3ncc(-c4cc(C)cc(F)c4)c(N4CCC(N)CC4)c3-c3nc4ccc(Cl)cc4[nH]3)cc(C(=O)NCCN)c2)C(C)C)cc1)C(C)C [Compound 179]
- EC50 [1]: 0.54 nM
- EC50 (SST2): 9.8 nM
- EC50 [2]: 370 nM

SMILES: CC[C@H](C)[C@@H]([C@@H](CC(=O)N1CCC[C@H]1[C@H](OC)[C@@H](C)C(=O)N[C@H](C)[C@@H](O)c1ccccc1)OC)N(C)C(=O)[C@@H](NC(=O)[C@H](C(C)C)N(C)C(=O)OCc1ccc(NC(=O)[C@H](CCCNC(N)=O)NC(=O)[C@@H](NC(=O)c2cc(NC(=O)CCOCCOCCOCCOCCC(=O)NCCNc3ncc(-c4cc(C)cc(F)c4)c(N4CCC(N)CC4)c3-c3nc4ccc(Cl)cc4[nH]3)cc(C(=O)NCC(=O)O)c2)C(C)C)cc1)C(C)C [Compound 150]
- EC50 [1]: 0.083 nM
- EC50 (SST2): 8.3 nM
- EC50 [2]: 53 nM

SMILES: CC[C@H](C)[C@@H]([C@@H](CC(=O)N1CCC[C@H]1[C@H](OC)[C@@H](C)C(=O)N[C@H](C)[C@@H](O)c1ccccc1)OC)N(C)C(=O)[C@@H](NC(=O)[C@H](C(C)C)N(C)C(=O)OCc1ccc(NC(=O)[C@H](CCCNC(N)=O)NC(=O)[C@@H](NC(=O)C[C@@H](N)C(=O)NCCOCCC(=O)NCCNc2ncc(-c3cc(C)cc(F)c3)c(N3CCC(NC)CC3)c2-c2nc3cc(F)cc(OC)c3[nH]2)C(C)C)c(O[C@@H]2O[C@H](C(=O)O)[C@@H](O)[C@H](O)[C@H]2O)c1)C(C)C [Compound 123]
- EC50 [1]: 0.2 nM
- EC50 (SST2): 2.3 nM
- EC50 [2]: 8.4 nM

SMILES: CC[C@H](C)[C@@H]([C@@H](CC(=O)N1CCC[C@H]1[C@H](OC)[C@@H](C)C(=O)N[C@H](C)[C@@H](O)c1ccccc1)OC)N(C)C(=O)[C@@H](NC(=O)[C@H](C(C)C)N(C)C(=O)OCc1ccc(NC(=O)[C@H](CCCNC(N)=O)NC(=O)[C@@H](NC(=O)C[C@@H](N)C(=O)NCCOCCC(=O)NCCNc2ncc(-c3cc(C)cc(F)c3)c(N3CCC(N)CC3)c2-c2nc3ccc(Cl)cc3[nH]2)C(C)C)c(O[C@@H]2O[C@H](C(=O)NCC(=O)O)[C@@H](O)[C@H](O)[C@H]2O)c1)C(C)C [Compound 35]
- EC50 [1]: 0.1 nM
- EC50 (SST2): 5 nM
- EC50 [2]: 16 nM

SMILES: CC[C@H](C)[C@@H]([C@@H](CC(=O)N1CCC[C@H]1[C@H](OC)[C@@H](C)C(=O)N[C@H](C)[C@@H](O)c1ccccc1)OC)N(C)C(=O)[C@@H](NC(=O)[C@H](C(C)C)N(C)C(=O)OCc1ccc(NC(=O)[C@H](CCCNC(N)=O)NC(=O)[C@@H](NC(=O)CCOCCOCCOCCOCCC(=O)NCCCNc2ncc(-c3cc(C)cc(F)c3)c(N3CCC(N)CC3)c2-c2nc3ccc(Cl)cc3[nH]2)C(C)C)cc1)C(C)C [Compound 197]
- EC50 [1]: 0.27 nM
- EC50 (SST2): 6.5 nM
- EC50 [2]: 12 nM

SMILES: CC[C@H](C)[C@@H]([C@@H](CC(=O)N1CCC[C@H]1[C@H](OC)[C@@H](C)C(=O)N[C@H](C)[C@@H](O)c1ccccc1)OC)N(C)C(=O)[C@@H](NC(=O)[C@H](C(C)C)N(C)C(=O)OCc1ccc(NC(=O)[C@H](C)NC(=O)[C@@H](NC(=O)CCOCCC(=O)NCCNc2ncc(-c3cc(C)cc(F)c3)c(N3CCC(N)CC3)c2-c2cc3ccc(Cl)cc3[nH]2)C(C)C)c(O[C@@H]2O[C@H](C(=O)O)[C@@H](O)[C@H](O)[C@H]2O)c1)C(C)C [Compound 115]
- EC50 [1]: 0.075 nM
- EC50 (SST2): 5.9 nM
- EC50 [2]: 5.1 nM

SMILES: CC[C@H](C)[C@@H]([C@@H](CC(=O)N1CCC[C@H]1[C@H](OC)[C@@H](C)C(=O)N[C@H](C)[C@@H](O)c1ccccc1)OC)N(C)C(=O)[C@@H](NC(=O)[C@H](C(C)C)N(C)C(=O)OCc1ccc(NC(=O)[C@H](C)NC(=O)[C@@H](NC(=O)CCOCCC(=O)NCCNc2ncc(-c3cc(C)cc(F)c3)c(N3CC[C@H]4NCCO[C@@H]4C3)c2-c2nc3c(F)cc(F)cc3[nH]2)C(C)C)c(O[C@@H]2O[C@H](C(=O)O)[C@@H](O)[C@H](O)[C@H]2O)c1)C(C)C [Compound 114]
- EC50 [1]: 85 nM
- EC50 (SST2): 850 nM
- EC50 [2]: 4600 nM

SMILES: CC[C@H](C)[C@@H]([C@@H](CC(=O)N1CCC[C@H]1[C@H](OC)[C@@H](C)C(=O)N[C@H](C)[C@@H](O)c1ccccc1)OC)N(C)C(=O)[C@@H](NC(=O)[C@H](C(C)C)N(C)C(=O)OCc1ccc(NC(=O)[C@H](CCCNC(N)=O)NC(=O)[C@@H](NC(=O)C[C@@H](N)C(=O)NCCOCCC(=O)NCCNc2ncc(-c3cc(C)cc(F)c3)c(N3CCC(N)CC3)c2-c2nc3ccc(Cl)cc3[nH]2)C(C)C)cc1)C(C)C [Compound 181]
- EC50 [1]: 0.38 nM
- EC50 (SST2): 3.4 nM
- EC50 [2]: 190 nM

SMILES: CC[C@H](C)[C@@H]([C@@H](CC(=O)N1CCC[C@H]1[C@H](OC)[C@@H](C)C(=O)N[C@H](C)[C@@H](O)c1ccccc1)OC)N(C)C(=O)[C@@H](NC(=O)[C@H](C(C)C)N(C)C(=O)OCc1ccc(NC(=O)[C@H](CCCNC(N)=O)NC(=O)[C@@H](NC(=O)[C@H](CCC(=O)O)NC(=O)CCOCCC(=O)NCCNc2ncc(-c3cc(C)cc(F)c3)c(N3CC[C@H]4NCCC[C@@H]4C3)c2-c2nc3ccc(Cl)cc3[nH]2)C(C)C)cc1C(=O)NCCN)C(C)C [Compound 80]
- EC50 [1]: 180 nM
- EC50 (SST2): 920 nM
- EC50 [2]: 540 nM

SMILES: CC[C@H](C)[C@@H]([C@@H](CC(=O)N1CCC[C@H]1[C@H](OC)[C@@H](C)C(=O)N[C@H](C)[C@@H](O)c1ccccc1)OC)N(C)C(=O)[C@@H](NC(=O)[C@H](C(C)C)N(C)C(=O)OCc1ccc(NC(=O)[C@H](CCCNC(N)=O)NC(=O)[C@@H](NC(=O)CCOCCOCCOCCOCCC(=O)NCCNc2ncc(-c3cc(C)cc(F)c3)c(N3CCC(N)CC3)c2-c2nc3ccc(Cl)cc3[nH]2)C(C)C)cc1C(=O)NCC(=O)O)C(C)C [Compound 86]
- EC50 [1]: 0.068 nM
- EC50 (SST2): 4.1 nM
- EC50 [2]: 1000 nM
